We go through 18 compounds from US9051325B2, “Bicyclic [5,6] imidazo pyrimodone compounds for use in the treatment of diseases or conditions mediated by Lp-PLA2” (GlaxoSmithKline Intellectual Property Development Limited, priority 2013, dated 2015).

Like-named read-outs stand apart in the source and are kept apart here. A value given as a limit tells only on which side of the number the result lay.

Test [1] addresses T1, recombinant human Lp-PLA2 (Homo sapiens, UniProt Q13093).
T1 sequence (Q13093 22-441): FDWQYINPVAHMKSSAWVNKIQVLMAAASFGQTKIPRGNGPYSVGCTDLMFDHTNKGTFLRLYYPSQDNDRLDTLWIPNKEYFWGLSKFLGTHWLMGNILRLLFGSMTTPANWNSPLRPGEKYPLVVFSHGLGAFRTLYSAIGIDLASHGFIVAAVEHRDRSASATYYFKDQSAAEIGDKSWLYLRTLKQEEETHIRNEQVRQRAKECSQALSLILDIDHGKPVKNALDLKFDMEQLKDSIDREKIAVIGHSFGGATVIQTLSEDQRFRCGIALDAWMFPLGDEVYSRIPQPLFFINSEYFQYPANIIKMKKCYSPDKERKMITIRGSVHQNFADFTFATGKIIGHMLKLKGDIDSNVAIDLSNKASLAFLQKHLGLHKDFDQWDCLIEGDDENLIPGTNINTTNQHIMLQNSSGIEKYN
As to the kind of experiment: Recombinant human Lp-PLA2 assay (rhLp-PLA2, PED6 assay). It is filed as biochemical. The text has this:
(1) Recombinant Human Lp-PLA2 Assay (rhLp-PLA2) (Also Referred to as “PED6” Assay)
N-((6-(2,4-dinitrophenyl)amino)-hexanoyl)-2-(4,4-difluoro-5,7-dimethyl-4-bora-3a,4a-diaza-s-indacene-3-pentanoyl)-1-hexadecanoyl-sn-glycero-3-phosphoethanolamine, triethylammonium salt (PED6) is a commercially available fluorescently-labeled phospholipid, which is commercially available from Invitrogene and Molecular Probes. There is a quenching […] and a Bodipy fluorescein (FL) group in the sn2 position. Upon cleavage with Lp-PLA2, the Bodipy FL group is liberated and then may result in an increase in fluorescence. Inhibitors of Lp-PLA2 therefore prevent this cleavage and no fluorescent increase is observed.
The PED6 assay was run as an unquenched 10 μL assay. The source plate containing the compounds to be tested was prepared by making 1:3 (by volume) serial dilution of the compounds within DMSO on 384-well microplate. Then, 0.01 μL of the compounds on compound source plate were transferred into 384 well Greiner 784076 (black) plates using ECHO liquid dispenser. 5 μL of recombinant human Lp-PLA2 enzyme (4 nM (or […]) rhLp-PLA2 in assay buffer of 50 mM HEPES, pH 7.4, 150 mM NaCl, 1 mM CHAPS) was added to each well of the plate. Plates were centrifuged for 10 sec at 500 rpm. After 30 minutes preincubation, 5 μL of substrate ([…] PED6 [from 5 mM DMSO stock] in assay buffer of 50 mM HEPES, pH 7.4, 150 mM NaCl, 1 mM CHAPS) was added to 384 well Greiner 784076 (black) plates. Plates were centrifuged for 10 sec at 500 rpm. The plate was covered to protect it from light and incubated for 20 min at room temperature. The plates were read for fluorescence intensity at ex: 480/em: 540 using ViewLux microplate imager for Envision spectrofluoroimeters pIC50 data, curve and QC analysis was conducted by using XL fit module in Excel.

Test [2] addresses T2, Lp-PLA2 in human plasma (Homo sapiens, UniProt Q13093).
T2 construct: from tissue; host or cells: pooled human plasma
T2 sequence (Q13093 22-441): T1 sequence (Q13093 22-441)
Briefly: Lp-PLA2 human plasma assay (Thio-PAF assay). It is filed as biochemical. The conditions noted are these: pooled human plasma; lower bounds; read-out: pIC50 values in the thio-PAF assay (converted). The text has this: (3) Lipoprotein-Associated Phospholipase A2 (Lp-PLA2) Human Plasma Assay (Also Referred to as “Thio-PAF assay”)
The human plasma assay utilizes a thioester analog of PAF (phosphatidylcholine), where hydrolysis yields to the formation of a phospholipid containing a free thiol group. The amount of thiol is quantitated continuously by reacting with CPM (7-diethylamino-3-(4′-maleimidylphenyl)-4-methylcoumarin), a maleimide which increases in fluoresence after Michael addition of thiols. This assay may detect the activity of Lp-PLA2 in human plasma, as determined by specific inhibition by Lp-PLA2 inhibitors.
The thio-PAF assay was run as a quenched 15 μL assay. Compounds source plate was prepared by making 1:3 (by volume) serial dilution of the compounds into pure DMSO on 384-well microplate. 0.01 μL of compounds on compound source plate were transferred to 384 well Greiner 784076 (black) low-volume plates by ECHO liquid dispenser. 8 μL pooled human plasma, which was previously aliquoted and frozen, was added. Plates were centrifuged for 10 sec at 500 rpm. After 30 minutes preincubation, 2 μL of substrate solution comprising 2.5 mM 2-thio-PAF [from ethanol stock], 32 μM CPM [from a DMSO stock] and 3.2 mM NEM (N-ethylmaleimide) [made fresh daily in DMSO] in assay buffer of 50 mM HEPES, pH 7.4, 150 mM NaCl, 1 mM CHAPS was added to 384 well Greiner 784076 (black) low-volume plates by BRAVO liquid handling station. After 2 mins, reaction was quenched with 5 μL of 5% aqueous trifluoroacetic acid (TFA). Plates were covered to protect from light and incubated for 40 min at room temperature. Plates were read at ex: 380/em: 485 using-Envision microplate reader. PIC50 data, curve and QC analysis were conducted by using XLFit module in Excel.

The mark [3] stands for this setting: lower bounds, read-out: pIC50 values in the PED6 assay (converted).
The mark [4] stands for this setting: read-out: rhLp-PLA2 (PED6 assay) (pIC50) (converted).

In the case of `C[C@H]1Cn2c(cc(OCc3ccc(Oc4ccc(C#N)c(C(F)(F)F)c4)c(F)c3)nc2=O)N1C` [Example E19, (S)-4-(4-(((1,2-dimethyl-5-oxo-1,2,3,5-tetrahydroimidazo[1,2-c]pyrimidin-7-yl)ox-y)methyl)-2-fluorophenoxy)-2-(trifluoromethyl)benzonitrile], the IC50 is at most 1 nM in test [1] (setting [3]) and at most 100 nM in test [2].
For `CN1c2cc(OCc3cc(F)c(F)c(F)c3)nc(=O)n2CC1(C)C` [Example E110, 1,2,2-trimethyl-7-((3,4,5-trifluorobenzyl)oxy)-2,3-dihydroimidazo[1,2-c]pyrimidin-5(1H)-one] the same measures were at most 10 nM and at most 100 nM.
In the case of `C[C@H]1Cn2c(cc(OCc3ccc(Oc4ccc(Cl)c(C#N)c4)c(F)c3)nc2=O)N1C` [Example E89, (S)-2-chloro-5-(4-(((1,2-dimethyl-5-oxo-1,2,3,5-tetrahydroimidazo[1,2-c]pyrimidin-7-yl)oxy)methyl)-2-fluorophenoxy)benzonitrile], the IC50 was at most 1 nM in test [1] (setting [3]) and at most 100 nM in test [2].
Turning to `C[C@H]1Cn2c(cc(OCc3ccc(Oc4cncc(C(F)(F)F)c4)c(F)c3)nc2=O)N1C` [Example E54, (S)-7-((3-fluoro-4-((5-(trifluoromethyl)pyridin-3-yl)oxy)benzyl)oxy)-1,2-dimethyl-2,3-dihydroimidazo[1,2-c]pyrimidin-5(1H)-one], the IC50 in test [1] (setting [3]) was at most 1 nM; in test [1] (setting [4]) it was 0.126 nM; in test [2], at most 100 nM.
On the same counts, the results for `CN1c2cc(OCc3cc(F)c(Oc4ccc(F)nc4)c(F)c3)nc(=O)n2CC1(C)C` [Example E64, 7-((3,5-difluoro-4-((6-fluoropyridin-3-yl)oxy)benzyl)oxy)-1,2,2-trimethyl-2,3-dihydroimidazo[1,2-c]pyrimidin-5(1H)-one] are at most 1 nM, 0.0794 nM and at most 100 nM.
In the case of `CC1(C)Cn2c(cc(OCc3ccc(Oc4ccc(Cl)nc4)c(F)c3)nc2=O)N1` [Example E44, 7-((4-((6-chloropyridin-3-yl)oxy)-3-fluorobenzyl)oxy)-2,2-dimethyl-2,3-dihydroimidazo[1,2-c]pyrimidin-5(1H)-one], the IC50 in test [1] (setting [3]) is at most 1 nM; in test [2] it was at most 100 nM.
With `CC1(C)Cn2c(cc(OCc3cc(F)c(Oc4ccnc(F)c4)c(F)c3)nc2=O)N1` [Example E116, 7-((3,5-difluoro-4-((2-fluoropyridin-4-yl)oxy)benzyl)oxy)-2,2-dimethyl-2,3-dihydroimidazo[1,2-c]pyrimidin-5(1H)-one], the IC50 in test [1] (setting [3]) was at most 1 nM; in test [2] it was at most 100 nM.
For the compound `CN1c2cc(OCc3ccc(Oc4ccnc(Cl)c4)c(F)c3)nc(=O)n2CC1(C)C` [Example E65, 7-((4-((2-chloropyridin-4-yl)oxy)-3-fluorobenzyl)oxy)-1,2,2-trimethyl-2,3-dihydroimidazo[1,2-c]pyrimidin-5(1H)-one], the figures for the IC50 in test [1] (setting [3]) and in test [2] were at most 1 nM and at most 100 nM, respectively.
For the compound `CC1Cn2c(cc(OCc3ccc(F)c(F)c3)nc2=O)N1C` (stereo not shown) [Example E2, 7-((3,4-difluorobenzyl)oxy)-1,2-dimethyl-2,3-dihydroimidazo[1,2-c]pyrimidin-5(1H)-one], the IC50 in test [1] (setting [3]) is at most 10 nM; in test [2], at most 100 nM.
`CC1(C)Cn2c(cc(OCc3cc(F)c(Oc4cncc(C(F)(F)F)c4)c(F)c3)nc2=O)N1` [Example E91, 7-((3,5-difluoro-4-((5-(trifluoromethyl)pyridin-3-yl)oxy)benzyl)oxy)-2,2-dimethyl-2,3-dihydroimidazo[1,2-c]pyrimidin-5(1H)-one]: the results for the IC50 in test [1] (setting [3]) and in test [2] were at most 1 nM and at most 100 nM, respectively.
On the same counts, the results for `C[C@H]1Cn2c(cc(OCc3cc(F)c(Oc4ccc(C(F)(F)F)nc4)c(F)c3)nc2=O)N1C` [Example E73, (S)-7-((3,5-difluoro-4-((6-(trifluoromethyl)pyridin-3-yl)oxy)benzyl)oxy)-1,2-dimethyl-1-2,3-dihydroimidazo[1,2-c]pyrimidin-5(1H)-one] are at most 1 nM and at most 100 nM.
For `CCN1c2cc(OCc3cccc(F)c3F)nc(=O)n2CC1(C)C` [Example E66, 7-((2,3-difluorobenzyl)oxy)-1-ethyl-2,2-dimethyl-2,3-dihydroimidazo[1,2-c]pyrimidin-5(1H)-one] the same measures were at most 10 nM and at most 100 nM.
As for `CC1(C)Cn2c(cc(OCc3cc(F)c(Oc4ccc(C(F)(F)F)nc4)c(F)c3)nc2=O)N1` [Example E39, 7-((3,5-difluoro-4-((6-(trifluoromethyl)pyridin-3-yl)oxy)benzyl)oxy)-2,2-dimethyl-2,3-dihydroimidazo[1,2-c]pyrimidin-5(1H)-one], the IC50 in test [1] (setting [3]) was at most 1 nM; in test [2] it was at most 100 nM.
Consider `CC(C)N1c2cc(OCc3cc(F)cc(F)c3)nc(=O)n2CC1(C)C` [Example E96, 7-((3,5-difluorobenzyl)oxy)-1-isopropyl-2,2-dimethyl-2,3-dihydroimidazo[1,2-c]pyrimidin-5(1H)-one], for which the IC50 in test [1] (setting [3]) was at most 1 nM; in test [1] (setting [4]) it was 0.316 nM; in test [2] it was at most 100 nM.
Turning to `CN1c2cc(OCc3cc(F)c(Oc4cncc(Cl)c4)c(F)c3)nc(=O)n2CC1(C)C` [Example E113, 7-((4-((5-chloropyridin-3-yl)oxy)-3,5-difluorobenzyl)oxy)-1,2,2-trimethyl-2,3-dihydroimidazo[1,2-c]pyrimidin-5(1H)-one], the IC50 in test [1] (setting [3]) is at most 1 nM; in test [2], at most 100 nM.
On the same counts, the results for `CN1c2cc(OCc3ccc(Oc4ccc(C(F)(F)F)nc4)c(F)c3)nc(=O)n2CC1(C)C` [Example E112, 7-((3-fluoro-4-((6-(trifluoromethyl)pyridin-3-yl)oxy)benzyl)oxy)-1,2,2-trimethyl-2,3-dihydroimidazo[1,2-c]pyrimidin-5(1H)-one] are at most 1 nM and at most 100 nM.
On to `CN1c2cc(OCc3cc(F)c(Oc4cnc(C(F)(F)F)nc4)c(F)c3)nc(=O)n2CC1(C)C` [Example E95, 7-((3,5-difluoro-4-((2-(trifluoromethyl)pyrimidin-5-yl)oxy)benzyl)oxy)-1,2,2-trimet-hyl-2,3-dihydroimidazo[1,2-c]pyrimidin-5(1H)-one], for which the IC50 in test [1] (setting [3]) was at most 1 nM; in test [1] (setting [4]), 0.0794 nM; in test [2], at most 100 nM.
Consider `[2H]C1([2H])n2c(cc(OCc3cccc(F)c3F)nc2=O)N(C)C1(C)C` [Example E136, 7-((2,3-difluorobenzyl)oxy)-1,2,2-trimethyl-3,3-dideutero-2,3-dihydroimidazo[1,2-c]pyrimidin-5(1H)-one], for which the IC50 in test [1] (setting [3]) was at most 10 nM; in test [2], at most 100 nM.
